Converted amounts (≈) assume the structure as drawn.
Legend:
Type in all cases: cell-based
[1] = test system: Candida albicans (ATCC 10231); test: Antimicrobial activity (MFC), C. albicans; conditions: saline pH 7, 1 h at room temperature, 1.0×10^5 to 1.0×10^6 CFU/mL
Protocol: (§1) Antimicrobial activity of certain compounds of the present disclosure was tested against Escherichia coli (ATCC 25922), Staphylococcus aureus (ATCC 29213), and Candida albicans (ATCC 10231). The microbial cultures were diluted in sterile saline pH 7 to prepare inocula. Test compounds were titrated by stepwise two-fold dilutions in sterile saline pH 7. A total of 1.0×10^5 to 1.0×10^6 Colony Forming Units (CFU)/mL microbe was added to each tube, mixed by gentle vortexing, and then incubated at room temperature for 1 h. Microbial plating on Petri dishes (Tryptic Soy agar or Saboraud's Dextrose agar) was performed immediately after the designated exposure after neutralization of the test article dilutions in Dey-Engley Broth. Plates were incubated at 37° C., and the numbers of microbes were counted by direct colony count to quantitate the surviving microbes as CFU/mL. Positive growth controls were made with sterile 0.9% saline. Compounds were dissolved phosphate buffered saline (PBS) at pH 7 (using HCl and/or NaOH as needed). All compounds were tested three times.

[2] = test system: Escherichia coli (ATCC 25922); test: Antimicrobial activity (MBC), E. coli; conditions: saline pH 7, 1 h at room temperature, 1.0×10^5 to 1.0×10^6 CFU/mL
Protocol: as §1

[3] = test system: Staphylococcus aureus (ATCC 29213); test: Antimicrobial activity (MBC), S. aureus; conditions: saline pH 7, 1 h at room temperature, 1.0×10^5 to 1.0×10^6 CFU/mL
Protocol: as §1

L929 cells = test: Cytotoxicity CT50 in L929 cells

| Structure (SMILES) | MBC/MFC C. albicans [1] | MBC/MFC E. coli [2] | MBC/MFC S. aureus [3] | CT50 L929 cells (L929 cells) |
| --- | --- | --- | --- | --- |
| CC1(CCl)COC(=O)N1Cl (stereo not shown) [Compound 36-01, 3-Chloro-4-(chloromethyl)-4-methyloxazolidin-2-one] | >128 µg/mL | 0.5 µg/mL (≈ 2.72 µM) | 0.5 µg/mL (≈ 2.72 µM) | 0.09 mM |
| CN1CC(C)(CCl)N(Cl)C1=O (stereo not shown) [Compound 36-02, 3-Chloro-4-(chloromethyl)-1,4-dimethylimidazolidin-2-one] | 512 µg/mL (≈ 2600 µM) | 8 µg/mL (≈ 40.6 µM) | 16 µg/mL (≈ 81.2 µM) | 0.04 mM |
| CC1(CCl)CCC(=O)N1Cl (stereo not shown) [Compound 36-03, 1-chloro-5-(chloromethyl)-5-methylpyrrolidin-2-one] | >512 µg/mL | 2 µg/mL (≈ 11 µM) | 128 µg/mL (≈ 703 µM) | 0.026 mM |
| CC1(CBr)COC(=O)N1Cl (stereo not shown) [Compound 36-05, 4-(bromomethyl)-3-chloro-4-methyloxazolidin-2-one] | 64 µg/mL (≈ 280 µM) | 1 µg/mL (≈ 4.38 µM) | 0.5 µg/mL (≈ 2.19 µM) | 0.1 mM |
| O=C1OCC(CCl)(CCl)N1Cl [Compound 36-06, 3-chloro-4,4-bis(chloromethyl)oxazolidin-2-one] | 16 µg/mL (≈ 73.2 µM) | 1 µg/mL (≈ 4.58 µM) | 0.5 µg/mL (≈ 2.29 µM) | 0.4 mM |
| CC1(CF)COC(=O)N1Cl (stereo not shown) [Compound 36-07, 3-chloro-4-(fluoromethyl)-4-methyl-oxazolidin-2-one] | 256 µg/mL (≈ 1530 µM) | 0.5 µg/mL (≈ 2.98 µM) | 0.5 µg/mL (≈ 2.98 µM) | 0.142 mM |
| CC1(CC(F)(F)F)COC(=O)N1Cl (stereo not shown) [Compound 36-08, 3-chloro-4-(2,2,2-trifluoroethyl)-4-methyl-oxazolidin-2-one] | 128 µg/mL (≈ 588 µM) | 4 µg/mL (≈ 18.4 µM) | 1 µg/mL (≈ 4.6 µM) | 0.232 mM |
